Data from article PMC12595434, “Development of retinoid nuclear receptor pathway antagonists through targeting aldehyde dehydrogenase 1A3” (iScience, 2025).

Key:
COX2 = COX2 (Homo sapiens, UniProt P35354); experiment: Off-target profiling panel; assay type: biochemical; conditions: read-out: Inhibition by MBE1 at 10 μM (%)
CCKa = CCKa (Homo sapiens, UniProt P32238); experiment: Off-target profiling panel; assay type: binding; conditions: read-out: Inhibition by MBE1 at 10 μM (%)
PDE3A = PDE3A (Homo sapiens, UniProt Q14432); experiment: Off-target profiling panel; assay type: biochemical
Sequence of PDE3A (Q14432 whole entry): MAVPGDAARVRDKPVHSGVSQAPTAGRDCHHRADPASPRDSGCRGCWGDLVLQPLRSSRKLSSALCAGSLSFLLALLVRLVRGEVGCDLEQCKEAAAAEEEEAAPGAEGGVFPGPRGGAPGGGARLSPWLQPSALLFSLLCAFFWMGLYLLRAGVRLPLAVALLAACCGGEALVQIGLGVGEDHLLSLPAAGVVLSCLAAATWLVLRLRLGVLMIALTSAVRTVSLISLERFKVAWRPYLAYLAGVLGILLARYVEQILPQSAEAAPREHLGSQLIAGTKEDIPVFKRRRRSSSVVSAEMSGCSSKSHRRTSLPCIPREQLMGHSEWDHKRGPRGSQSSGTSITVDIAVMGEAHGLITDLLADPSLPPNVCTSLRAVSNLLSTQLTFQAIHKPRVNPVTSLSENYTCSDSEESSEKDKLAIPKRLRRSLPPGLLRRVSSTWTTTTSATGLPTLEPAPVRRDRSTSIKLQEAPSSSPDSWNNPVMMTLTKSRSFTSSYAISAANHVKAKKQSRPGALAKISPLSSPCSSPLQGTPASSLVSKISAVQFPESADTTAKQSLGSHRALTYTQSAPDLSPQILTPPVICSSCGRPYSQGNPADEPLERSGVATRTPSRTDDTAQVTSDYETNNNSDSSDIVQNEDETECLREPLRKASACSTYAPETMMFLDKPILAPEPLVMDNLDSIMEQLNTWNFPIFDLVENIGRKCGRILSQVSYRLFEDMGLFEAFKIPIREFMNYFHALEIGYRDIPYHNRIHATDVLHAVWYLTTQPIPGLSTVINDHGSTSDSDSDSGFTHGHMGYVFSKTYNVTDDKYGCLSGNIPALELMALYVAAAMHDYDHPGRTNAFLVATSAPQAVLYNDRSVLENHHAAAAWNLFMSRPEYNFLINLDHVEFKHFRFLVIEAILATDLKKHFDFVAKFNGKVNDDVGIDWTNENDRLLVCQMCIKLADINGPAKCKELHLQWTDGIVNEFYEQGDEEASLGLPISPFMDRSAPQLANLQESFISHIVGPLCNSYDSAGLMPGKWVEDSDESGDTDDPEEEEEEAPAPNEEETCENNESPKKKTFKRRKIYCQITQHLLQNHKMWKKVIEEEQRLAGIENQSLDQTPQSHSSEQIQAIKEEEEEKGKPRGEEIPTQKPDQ

HaCaT cells = experiment: Dose-titration cytotoxicity analysis; conditions: 24 hour incubation, highest tested dose 10 μM
CDCP1 = molecular target: T1, CDCP1 (Homo sapiens, UniProt Q9H5V8); experiment: Thermal proteome profiling (TPP) in A375 cells; assay type: cell-based; conditions: CDCP1, 1 uM
T1 construct: Treated A375 cells were harvested from 10 × 15 cm plates; endogenous in cells; host or cells: A375 melanoma cells
T1 sequence (Q9H5V8 30-836): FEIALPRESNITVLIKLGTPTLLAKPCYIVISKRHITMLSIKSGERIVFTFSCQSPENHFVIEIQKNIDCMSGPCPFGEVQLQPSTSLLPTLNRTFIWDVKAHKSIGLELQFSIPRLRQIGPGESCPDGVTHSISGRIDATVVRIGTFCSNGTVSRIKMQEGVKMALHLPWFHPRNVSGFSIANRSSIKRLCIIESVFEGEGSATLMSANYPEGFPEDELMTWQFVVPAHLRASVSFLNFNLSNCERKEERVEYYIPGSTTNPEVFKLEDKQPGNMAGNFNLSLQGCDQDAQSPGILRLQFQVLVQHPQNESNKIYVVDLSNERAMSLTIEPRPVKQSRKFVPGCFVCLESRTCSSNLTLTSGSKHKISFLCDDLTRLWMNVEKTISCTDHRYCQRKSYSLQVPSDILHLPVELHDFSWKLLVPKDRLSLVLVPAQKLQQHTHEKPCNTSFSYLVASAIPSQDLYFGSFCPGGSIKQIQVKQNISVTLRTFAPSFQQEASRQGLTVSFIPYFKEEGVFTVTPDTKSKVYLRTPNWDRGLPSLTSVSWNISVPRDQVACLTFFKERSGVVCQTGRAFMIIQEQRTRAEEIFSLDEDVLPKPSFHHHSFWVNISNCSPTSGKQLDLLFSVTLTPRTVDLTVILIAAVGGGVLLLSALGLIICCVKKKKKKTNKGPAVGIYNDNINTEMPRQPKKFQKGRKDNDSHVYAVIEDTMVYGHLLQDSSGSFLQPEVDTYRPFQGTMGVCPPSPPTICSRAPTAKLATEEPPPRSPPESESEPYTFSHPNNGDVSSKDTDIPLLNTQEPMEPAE

mouse T cells = experiment: T cell proliferation (CFSE) co-culture with myeloid cells; assay type: cell-based; conditions: 1 μM MBE1 treatment of B16F10-ALDH1A3 cells
Description: Next, to simulate paracrine signaling from tumor cells, we collected conditioned media from isogenic B16F10 cells stably expressing either vector or ALDH1A3 and added the media to the myeloid cells prior to culturing with T cells.
Bone marrow derived monocytes were enriched using MACS isolation (#130-100-629) and >95% purity of monocytes was confirmed by staining with Ly6C-PE (Clone# HK1.4; Biolegend 128008). Monocytes were cultured in RPMI1640 at 1M/well in a 6-well plate. 20 ng/ml mGM-CSF (peprotech) and 20 ng/ml mIL-4 (peprotech) were used to differentiate monocytes to monocyte derived dendritic cells (MoDCs). 100 nM atRA or 0.1% DMSO was used to treat the cells. 3 days later, floating cells were collected and 20,000 of them were cocultured with 100,000 CD4^+ T cell labeled with CFSE (Thermo fisher scientific) at 1:5000. T cell proliferation was examined ∼72hrs after the coculture. When conditioned medium was used in differentiating MoDCs, conditioned medium was first collected from 500,000 B16-vector control cells vs. B16-mALDH1A3 cells with or without 1 μM MBE1 treatment cultured in 1.5 mL medium in a 6-well plate for ∼24hrs. Fresh RPMI1640 and conditioned medium were mixed 1:1 before applying to MoDC culture. In parallel, fresh RPMI1640 medium alone is used as a control. […]

T3-MCA tumors = experiment: Tumor infiltrating immune cell profiling of T3-MCA tumors; conditions: oral gavage, 7 days of treatment
MDA-MB-468 cells = conditions: MDA-MB-468, 24 hour incubation, highest tested dose 10 μM
CB2 = CB2 (Homo sapiens, UniProt P34972); experiment: Off-target profiling panel; assay type: binding; conditions: read-out: Inhibition by MBE1 at 10 μM (%)
Sequence of CB2 (P34972 whole entry): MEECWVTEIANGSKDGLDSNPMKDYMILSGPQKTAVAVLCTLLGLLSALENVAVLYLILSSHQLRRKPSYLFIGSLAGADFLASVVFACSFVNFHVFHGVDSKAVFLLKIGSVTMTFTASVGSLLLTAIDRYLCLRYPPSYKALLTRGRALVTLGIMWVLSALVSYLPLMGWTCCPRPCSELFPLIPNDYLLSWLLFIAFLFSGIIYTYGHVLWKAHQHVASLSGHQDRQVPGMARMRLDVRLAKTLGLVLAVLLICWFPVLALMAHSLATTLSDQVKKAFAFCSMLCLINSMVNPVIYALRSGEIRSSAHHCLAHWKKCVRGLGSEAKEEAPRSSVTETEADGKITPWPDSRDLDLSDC

hERG = hERG (Homo sapiens, UniProt Q12809); experiment: Off-target profiling panel; assay type: binding; conditions: read-out: Inhibition by MBE1 at 10 μM (%)
5HT1a = 5HT1a (Homo sapiens, UniProt P08908); experiment: Off-target profiling panel; assay type: binding; conditions: read-out: Inhibition by MBE1 at 10 μM (%)
Sequence of 5HT1a (P08908 whole entry): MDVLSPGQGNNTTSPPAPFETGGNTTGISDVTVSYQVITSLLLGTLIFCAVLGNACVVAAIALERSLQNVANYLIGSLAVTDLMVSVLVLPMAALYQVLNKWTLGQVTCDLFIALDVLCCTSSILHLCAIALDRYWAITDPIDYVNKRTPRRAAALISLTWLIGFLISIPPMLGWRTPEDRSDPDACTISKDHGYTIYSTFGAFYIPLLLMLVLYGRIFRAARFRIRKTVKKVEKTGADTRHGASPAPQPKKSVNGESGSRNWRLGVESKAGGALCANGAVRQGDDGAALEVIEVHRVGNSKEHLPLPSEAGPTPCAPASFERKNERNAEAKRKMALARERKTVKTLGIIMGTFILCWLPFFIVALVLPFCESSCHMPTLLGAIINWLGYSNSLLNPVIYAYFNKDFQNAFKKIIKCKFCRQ

ALDH3A1 = molecular target: T2, ALDH3A1 (Homo sapiens, UniProt P30838); experiment: Recombinant enzyme activity assay; assay type: biochemical; conditions: selectivity profiling
T2 construct: made in house; host or cells: BL21-DE3 E. coli
T2 sequence (P30838 whole entry): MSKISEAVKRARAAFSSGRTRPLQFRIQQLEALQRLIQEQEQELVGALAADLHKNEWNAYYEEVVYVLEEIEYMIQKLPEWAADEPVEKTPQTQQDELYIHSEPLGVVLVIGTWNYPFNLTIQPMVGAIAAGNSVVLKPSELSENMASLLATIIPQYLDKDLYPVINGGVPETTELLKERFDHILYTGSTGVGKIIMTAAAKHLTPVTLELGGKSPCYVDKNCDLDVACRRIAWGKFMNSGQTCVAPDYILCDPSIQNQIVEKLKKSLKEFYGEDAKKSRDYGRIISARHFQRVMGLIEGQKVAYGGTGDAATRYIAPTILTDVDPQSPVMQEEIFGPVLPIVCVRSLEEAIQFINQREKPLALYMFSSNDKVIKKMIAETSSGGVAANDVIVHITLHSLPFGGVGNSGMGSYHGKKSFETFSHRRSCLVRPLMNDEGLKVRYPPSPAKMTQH

ALDH1L2 = molecular target: T3, ALDH1L2 (Homo sapiens, UniProt Q3SY69); experiment: Recombinant enzyme activity assay; assay type: biochemical; conditions: selectivity profiling
T3 construct: made in house; host or cells: BL21-DE3 E. coli
T3 sequence (Q3SY69 whole entry): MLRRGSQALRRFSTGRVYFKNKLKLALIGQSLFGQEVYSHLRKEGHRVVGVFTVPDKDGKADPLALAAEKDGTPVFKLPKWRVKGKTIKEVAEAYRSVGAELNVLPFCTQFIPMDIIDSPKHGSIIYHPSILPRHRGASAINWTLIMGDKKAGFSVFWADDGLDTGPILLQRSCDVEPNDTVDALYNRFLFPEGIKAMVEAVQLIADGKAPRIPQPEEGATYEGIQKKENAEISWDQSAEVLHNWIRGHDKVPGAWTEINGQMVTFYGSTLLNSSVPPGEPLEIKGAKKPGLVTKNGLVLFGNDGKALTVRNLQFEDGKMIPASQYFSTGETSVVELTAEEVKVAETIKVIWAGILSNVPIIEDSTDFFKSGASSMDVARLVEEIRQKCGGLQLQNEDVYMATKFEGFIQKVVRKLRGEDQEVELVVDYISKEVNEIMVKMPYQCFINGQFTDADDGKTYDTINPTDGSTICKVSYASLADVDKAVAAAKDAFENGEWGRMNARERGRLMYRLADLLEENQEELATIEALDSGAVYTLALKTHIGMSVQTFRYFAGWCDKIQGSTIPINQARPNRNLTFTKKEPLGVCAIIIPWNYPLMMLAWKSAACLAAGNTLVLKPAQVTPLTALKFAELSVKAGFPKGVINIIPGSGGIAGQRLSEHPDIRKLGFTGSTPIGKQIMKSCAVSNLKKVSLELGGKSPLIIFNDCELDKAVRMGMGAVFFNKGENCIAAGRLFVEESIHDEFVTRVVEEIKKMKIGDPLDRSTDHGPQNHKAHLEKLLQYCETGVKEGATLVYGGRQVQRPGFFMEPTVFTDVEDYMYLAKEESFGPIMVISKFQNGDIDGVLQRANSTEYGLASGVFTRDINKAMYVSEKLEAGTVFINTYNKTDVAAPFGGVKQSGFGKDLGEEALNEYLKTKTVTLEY

ALDH1L1 = molecular target: T4, ALDH1L1 (Homo sapiens, UniProt O75891); experiment: Recombinant enzyme activity assay; assay type: biochemical; conditions: selectivity profiling
T4 construct: made in house; host or cells: BL21-DE3 E. coli

purified human ALDH1A3 = molecular target: T5, purified human ALDH1A3 (Homo sapiens, UniProt P47895); experiment: Nanoscale differential scanning fluorimetry (DSF); assay type: binding; conditions: 10 and 100 μM
T5 construct: made in house; host or cells: BL21-DE3 E. coli
T5 sequence (P47895 whole entry): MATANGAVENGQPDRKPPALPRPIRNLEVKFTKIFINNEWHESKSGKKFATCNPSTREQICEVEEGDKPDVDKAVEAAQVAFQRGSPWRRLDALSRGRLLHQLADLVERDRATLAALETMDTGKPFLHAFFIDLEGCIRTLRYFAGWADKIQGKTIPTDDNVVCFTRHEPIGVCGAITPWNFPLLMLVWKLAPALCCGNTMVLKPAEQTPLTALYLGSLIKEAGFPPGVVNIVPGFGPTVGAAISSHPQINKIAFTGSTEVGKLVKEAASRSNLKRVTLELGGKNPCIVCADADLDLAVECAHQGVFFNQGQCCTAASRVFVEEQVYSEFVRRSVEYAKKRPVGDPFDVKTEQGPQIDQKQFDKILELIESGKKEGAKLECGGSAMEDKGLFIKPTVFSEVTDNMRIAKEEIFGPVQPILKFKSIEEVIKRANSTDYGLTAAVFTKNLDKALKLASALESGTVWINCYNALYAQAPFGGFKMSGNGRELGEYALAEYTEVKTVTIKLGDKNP

Sequence of CCKa (P32238 whole entry): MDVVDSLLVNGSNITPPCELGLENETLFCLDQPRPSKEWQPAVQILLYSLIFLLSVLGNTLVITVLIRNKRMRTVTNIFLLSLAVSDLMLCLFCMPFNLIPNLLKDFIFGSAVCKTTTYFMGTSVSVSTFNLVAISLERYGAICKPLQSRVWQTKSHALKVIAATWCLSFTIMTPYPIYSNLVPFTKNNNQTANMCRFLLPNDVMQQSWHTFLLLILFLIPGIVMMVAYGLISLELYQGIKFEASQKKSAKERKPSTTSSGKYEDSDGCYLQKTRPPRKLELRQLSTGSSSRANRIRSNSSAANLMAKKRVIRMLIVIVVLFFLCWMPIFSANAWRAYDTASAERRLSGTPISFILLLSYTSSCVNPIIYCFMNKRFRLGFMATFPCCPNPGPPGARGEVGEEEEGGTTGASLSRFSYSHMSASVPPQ

| inhibitory activity against ALDH3A1 (in words) (ALDH3A1) | inhibitory activity against ALDH1L2 (in words) (ALDH1L2) | inhibitory activity against ALDH1L1 (in words) (ALDH1L1) | thermal stabilization of purified ALDH1A3 (purified human ALDH1A3) | Compound | inhibition at 10 µM (COX2) | inhibition at 10 µM (CCKa) | inhibition at 10 µM (PDE3A; read-out: Inhibition by MBE1 at 10 μM (%)) | concentration for PDE3α interaction as multiple of IC50 against ALDH1A3 (PDE3A; screen against 44 off-target proteins) | nonspecific cytotoxicity (in words) (HaCaT cells) | ΔTm at 1 µM (CDCP1; A-375, read-out: DMSO-1uM MBE1 TM shift) | 1uM MBE1 Tm (CDCP1) | T cell proliferation block by B16F10-ALDH1A3 conditioned media (in words) (mouse T cells) | CD4 T cells as percentage of total CD45^+ immune cells (in words) (T3-MCA tumors) | nonspecific cytotoxicity (in words) (MDA-MB-468 cells) | inhibition at 10 µM (CB2) | inhibition at 10 µM (hERG) | inhibition at 10 µM (5HT1a) |
| --- | --- | --- | --- | --- | --- | --- | --- | --- | --- | --- | --- | --- | --- | --- | --- | --- | --- |
|  |  |  |  | CCc1cnccc1C(=O)Nc1cc2c(cc1F)NC(=O)CC2 [MBE1, 3-ethyl-N-(7-fluoro-2-oxo-3,4-dihydro-1H-quinolin-6-yl)pyridine-4-carboxamide] | -1.05% | -1.45% | 75.8% | > 100 fold | nontoxic | -7.8 °C | 63.2685 | proliferation block disappeared | increased CD4 T cells | nontoxic | 5.07% | -28.1% | 3.78% |
| no inhibition | no inhibition | no inhibition | > 8.5 °C | CCc1ccccc1C(=O)Nc1cc2c(cc1F)NC(=O)CC2 [MBE1.5, 2-ethyl-N-(7-fluoro-2-oxo-3,4-dihydro-1H-quinolin-6-yl)benzamide] |  |  |  |  |  |  |  |  |  |  |  |  |  |
